Data published in PubChem BioAssay AID1918941 (Molecular Pharmacology Branch, DTP, NCI, 2023).

System: SW 1271 complex spheroids, viability
Experiment: Anticancer human tumor SW 1271 cell line growth inhibition [LSD1];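 also: spheroids exposed to agents for 7 days before luminescence read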;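 as to viability, T/C: 100% = DMSO vehicle control viability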
Conditions: for IC50: curve of first compound; for viability, T/C: stronger effect = lower value
Procedure, shortened: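 Multicellular complex spheroids of tumor cells with human endothelial cells (HUVEC) and mesenchymal stem cells; the LSD1 inhibitor iadademstat was combined with standard-of-care or investigational agents. Top concentration at or near clinical Cmax, half-log dilutions; final DMSO ≤0.25%.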

[1] = second compound 0.1 µM, first compound 0.0316 µM
[2] = second compound 0.1 µM, first compound 0.1 µM
[3] = second compound 0.316 µM, first compound 0.0316 µM
[4] = second compound 0.316 µM, first compound 0.1 µM
[5] = second compound 1 µM, first compound 0.0316 µM
[6] = second compound 1 µM, first compound 0.1 µM
[7] = second compound 3.16 µM, first compound 0.0316 µM
[8] = second compound 3.16 µM, first compound 0.1 µM
[9] = second compound 10 µM, first compound 0.0316 µM
[10] = second compound 10 µM, first compound 0.1 µM
[11] = second compound 0.1 µM, first compound 0.000949 µM
[12] = second compound 0.1 µM, first compound 0.003 µM
[13] = second compound 0.1 µM, first compound 0.00949 µM
[14] = second compound 0.1 µM, first compound 0.03 µM
[15] = second compound 0.1 µM, first compound 0.0949 µM
[16] = second compound 0.1 µM, first compound 0.3 µM
[17] = second compound 0.316 µM, first compound 0.000949 µM
[18] = second compound 0.316 µM, first compound 0.003 µM
[19] = second compound 0.316 µM, first compound 0.00949 µM
[20] = second compound 0.316 µM, first compound 0.03 µM
[21] = second compound 0.316 µM, first compound 0.0949 µM
[22] = second compound 0.316 µM, first compound 0.3 µM
[23] = second compound 1 µM, first compound 0.000949 µM
[24] = second compound 1 µM, first compound 0.003 µM
[25] = second compound 1 µM, first compound 0.00949 µM
[26] = second compound 1 µM, first compound 0.03 µM
[27] = second compound 1 µM, first compound 0.0949 µM
[28] = second compound 1 µM, first compound 0.3 µM
[29] = second compound 3.16 µM, first compound 0.000949 µM
[30] = second compound 3.16 µM, first compound 0.003 µM
[31] = second compound 3.16 µM, first compound 0.00949 µM
[32] = second compound 3.16 µM, first compound 0.03 µM
[33] = second compound 3.16 µM, first compound 0.0949 µM
[34] = second compound 3.16 µM, first compound 0.3 µM
[35] = second compound 10 µM, first compound 0.000949 µM
[36] = second compound 10 µM, first compound 0.003 µM
[37] = second compound 10 µM, first compound 0.00949 µM
[38] = second compound 10 µM, first compound 0.03 µM
[39] = second compound 10 µM, first compound 0.0949 µM
[40] = second compound 10 µM, first compound 0.3 µM

SMILES: CC[C@@]1(O)C(=O)OCc2c1cc1n(c2=O)Cc2cc3c(CN(C)C)c(O)ccc3nc2-1 + NC1CCC(NC2CC2c2ccccc2)CC1
- IC50 (second compound 0.1 µM): > 100 nM
- IC50 (second compound 0.316 µM): > 100 nM
- IC50 (second compound 1 µM): 66.1 nM
- IC50 (second compound 3.16 µM): 71.6 nM
- IC50 (second compound 10 µM): > 100 nM
- viability, T/C (second compound 0.1 µM, first compound 0.000316 µM): 89.2%
- viability, T/C (second compound 0.1 µM, first compound 0.001 µM): 93.8%
- viability, T/C (second compound 0.1 µM, first compound 0.00316 µM): 78.8%
- viability, T/C (second compound 0.1 µM, first compound 0.01 µM): 63%
- viability, T/C [1]: 58%
- viability, T/C [2]: 56.4%
- viability, T/C (second compound 0.316 µM, first compound 0.000316 µM): 90%
- viability, T/C (second compound 0.316 µM, first compound 0.001 µM): 74.2%
- viability, T/C (second compound 0.316 µM, first compound 0.00316 µM): 71.6%
- viability, T/C (second compound 0.316 µM, first compound 0.01 µM): 72.5%
- viability, T/C [3]: 62%
- viability, T/C [4]: 58.9%
- viability, T/C (second compound 1 µM, first compound 0.000316 µM): 73.4%
- viability, T/C (second compound 1 µM, first compound 0.001 µM): 94.5%
- viability, T/C (second compound 1 µM, first compound 0.00316 µM): 80.1%
- viability, T/C (second compound 1 µM, first compound 0.01 µM): 66.7%
- viability, T/C [5]: 59%
- viability, T/C [6]: 45.4%
- viability, T/C (second compound 3.16 µM, first compound 0.000316 µM): 95.9%
- viability, T/C (second compound 3.16 µM, first compound 0.001 µM): 78.2%
- viability, T/C (second compound 3.16 µM, first compound 0.00316 µM): 72.9%
- viability, T/C (second compound 3.16 µM, first compound 0.01 µM): 68.3%
- viability, T/C [7]: 49.7%
- viability, T/C [8]: 49.6%
- viability, T/C (second compound 10 µM, first compound 0.000316 µM): 88.3%
- viability, T/C (second compound 10 µM, first compound 0.001 µM): 84.2%
- viability, T/C (second compound 10 µM, first compound 0.00316 µM): 78.2%
- viability, T/C (second compound 10 µM, first compound 0.01 µM): 60.3%
- viability, T/C [9]: 57.5%
- viability, T/C [10]: 52.2%

SMILES: CCc1c2c(nc3ccc(O)cc13)-c1cc3c(c(=O)n1C2)COC(=O)[C@]3(O)CC + NC1CCC(NC2CC2c2ccccc2)CC1
- IC50 (second compound 0.1 µM): 3.54 nM
- IC50 (second compound 0.316 µM): 1.7 nM
- IC50 (second compound 1 µM): 3.54 nM
- IC50 (second compound 3.16 µM): 2.36 nM
- IC50 (second compound 10 µM): 1.83 nM
- viability, T/C [11]: 59.3%
- viability, T/C [12]: 53.9%
- viability, T/C [13]: 26.8%
- viability, T/C [14]: 8.08%
- viability, T/C [15]: 5.77%
- viability, T/C [16]: 5.6%
- viability, T/C [17]: 57.5%
- viability, T/C [18]: 42.2%
- viability, T/C [19]: 26%
- viability, T/C [20]: 9.7%
- viability, T/C [21]: 8.55%
- viability, T/C [22]: 3.31%
- viability, T/C [23]: 56.9%
- viability, T/C [24]: 52.8%
- viability, T/C [25]: 31.5%
- viability, T/C [26]: 8.11%
- viability, T/C [27]: 5.83%
- viability, T/C [28]: 3.46%
- viability, T/C [29]: 57.8%
- viability, T/C [30]: 46.5%
- viability, T/C [31]: 26.4%
- viability, T/C [32]: 7.18%
- viability, T/C [33]: 5.59%
- viability, T/C [34]: 19.2%
- viability, T/C [35]: 52.4%
- viability, T/C [36]: 48%
- viability, T/C [37]: 27.9%
- viability, T/C [38]: 7.16%
- viability, T/C [39]: 5.27%
- viability, T/C [40]: 3.36%

SMILES: Nc1ccccc1NC(=O)c1ccc(CNC(=O)OCc2cccnc2)cc1 + NC1CCC(NC2CC2c2ccccc2)CC1
- IC50 (second compound 0.1 µM): 158 nM
- IC50 (second compound 0.316 µM): 150 nM
- IC50 (second compound 1 µM): 153 nM
- IC50 (second compound 3.16 µM): 152 nM
- IC50 (second compound 10 µM): 147 nM
- viability, T/C [13]: 89.1%
- viability, T/C [14]: 78.6%
- viability, T/C [15]: 64.7%
- viability, T/C [16]: 33.4%
- viability, T/C (second compound 0.1 µM, first compound 0.949 µM): 10.5%
- viability, T/C (second compound 0.1 µM, first compound 3 µM): 5.83%
- viability, T/C [19]: 93.6%
- viability, T/C [20]: 69.4%
- viability, T/C [21]: 68%
- viability, T/C [22]: 31.2%
- viability, T/C (second compound 0.316 µM, first compound 0.949 µM): 8.46%
- viability, T/C (second compound 0.316 µM, first compound 3 µM): 5.39%
- viability, T/C [25]: 101%
- viability, T/C [26]: 73.5%
- viability, T/C [27]: 67.8%
- viability, T/C [28]: 35.9%
- viability, T/C (second compound 1 µM, first compound 0.949 µM): 7.27%
- viability, T/C (second compound 1 µM, first compound 3 µM): 8.95%
- viability, T/C [31]: 95.5%
- viability, T/C [32]: 85.1%
- viability, T/C [33]: 62.3%
- viability, T/C [34]: 32.9%
- viability, T/C (second compound 3.16 µM, first compound 0.949 µM): 10.5%
- viability, T/C (second compound 3.16 µM, first compound 3 µM): 4.3%
- viability, T/C [37]: 95.8%
- viability, T/C [38]: 92.6%
- viability, T/C [39]: 61.6%
- viability, T/C [40]: 29.2%
- viability, T/C (second compound 10 µM, first compound 0.949 µM): 11.2%
- viability, T/C (second compound 10 µM, first compound 3 µM): 7.03%

SMILES: Nc1ccn(C2OC(CO)C(O)C2(F)F)c(=O)n1 (stereo not given) + NC1CCC(NC2CC2c2ccccc2)CC1
- IC50 (second compound 0.1 µM): > 300 nM
- IC50 (second compound 0.316 µM): > 300 nM
- IC50 (second compound 1 µM): > 300 nM
- IC50 (second compound 3.16 µM): > 300 nM
- IC50 (second compound 10 µM): > 300 nM
- viability, T/C [11]: 83.3%
- viability, T/C [12]: 69.4%
- viability, T/C [13]: 62.5%
- viability, T/C [14]: 59.5%
- viability, T/C [15]: 69.3%
- viability, T/C [16]: 71.4%
- viability, T/C [17]: 73.8%
- viability, T/C [18]: 71.2%
- viability, T/C [19]: 76.2%
- viability, T/C [20]: 61.3%
- viability, T/C [21]: 62.7%
- viability, T/C [22]: 59.6%
- viability, T/C [23]: 80.7%
- viability, T/C [24]: 64.6%
- viability, T/C [25]: 59.8%
- viability, T/C [26]: 66.3%
- viability, T/C [27]: 56.1%
- viability, T/C [28]: 59.4%
- viability, T/C [29]: 67.5%
- viability, T/C [30]: 68.4%
- viability, T/C [31]: 84.5%
- viability, T/C [32]: 59.8%
- viability, T/C [33]: 60.5%
- viability, T/C [34]: 63%
- viability, T/C [35]: 83.7%
- viability, T/C [36]: 64.3%
- viability, T/C [37]: 62.5%
- viability, T/C [38]: 68.6%
- viability, T/C [39]: 60.7%
- viability, T/C [40]: 64.9%

SMILES: O=C(c1cc(Cc2n[nH]c(=O)c3ccccc23)ccc1F)N1CCN(C(=O)C2CC2)CC1 + NC1CCC(NC2CC2c2ccccc2)CC1
- IC50 (second compound 0.1 µM): > 10000 nM
- IC50 (second compound 0.316 µM): > 10000 nM
- IC50 (second compound 1 µM): > 10000 nM
- IC50 (second compound 3.16 µM): > 10000 nM
- IC50 (second compound 10 µM): > 10000 nM
- viability, T/C [1]: 82%
- viability, T/C [2]: 104%
- viability, T/C (second compound 0.1 µM, first compound 0.316 µM): 95.3%
- viability, T/C (second compound 0.1 µM, first compound 1 µM): 86.2%
- viability, T/C (second compound 0.1 µM, first compound 3.16 µM): 82.6%
- viability, T/C (second compound 0.1 µM, first compound 10 µM): 71.2%
- viability, T/C [3]: 85.7%
- viability, T/C [4]: 91.9%
- viability, T/C (second compound 0.316 µM, first compound 0.316 µM): 97.3%
- viability, T/C (second compound 0.316 µM, first compound 1 µM): 87.7%
- viability, T/C (second compound 0.316 µM, first compound 3.16 µM): 81.9%
- viability, T/C (second compound 0.316 µM, first compound 10 µM): 63.8%
- viability, T/C [5]: 82.7%
- viability, T/C [6]: 105%
- viability, T/C (second compound 1 µM, first compound 0.316 µM): 91.5%
- viability, T/C (second compound 1 µM, first compound 1 µM): 96.6%
- viability, T/C (second compound 1 µM, first compound 3.16 µM): 79.8%
- viability, T/C (second compound 1 µM, first compound 10 µM): 71.9%
- viability, T/C [7]: 81.6%
- viability, T/C [8]: 94.7%
- viability, T/C (second compound 3.16 µM, first compound 0.316 µM): 101%
- viability, T/C (second compound 3.16 µM, first compound 1 µM): 83.4%
- viability, T/C (second compound 3.16 µM, first compound 3.16 µM): 84%
- viability, T/C (second compound 3.16 µM, first compound 10 µM): 76.6%
- viability, T/C [9]: 93.8%
- viability, T/C [10]: 95.9%
- viability, T/C (second compound 10 µM, first compound 0.316 µM): 94.5%
- viability, T/C (second compound 10 µM, first compound 1 µM): 84.2%
- viability, T/C (second compound 10 µM, first compound 3.16 µM): 78.1%
- viability, T/C (second compound 10 µM, first compound 10 µM): 66.9%
